# Legend:
# human neutrophils [1] = test: Neutrophil degranulation: release of vitamin B12 binding protein; assay type: cell-based; settings: 20 μg/ml
# Procedure: (§1) The activation of human neutrophils by nitro compounds was assessed by the ability to stimulate superoxide production (chemiluminescence response) and release of lysosomal enzymes from specific and azurophilic granules. Neutrophils were prepared from whole blood taken from normal healthy volunteers by the rapid-single step procedure^(41). Briefly, blood anticoagulated with heparin was carefully layered on a hypaque-ficoll medium of 1.114 g/ml and centrifuged in swing-out-buckets at 200 g/30 min. The leukocytes were resolved into two bands and the erythrocytes sedimented at the bottom of the tube. The second leukocyte band approximately 0.7 cm from the mononuclear cell containing band at the interface contained neutrophils of >98% purity and >99% viability (trypan blue dye exclusion criteria). The neutrophils were carefully harvested with a pasteur pipette, and washed and resuspended in tissue culture medium. The respiratory burst response of neutrophils was assessed by measuring superoxide production by the lucigenin dependent chemiluminescence assay essentially as described previously^(42). Briefly, 1×10^6 neutrophils (100 μl) in HBSS were treated with the nitro analogues of fatty acids (100 μl), then lucigenin was added and the volume made up. […]
# 12-LO [2] = biological target: T1, 12-LO (Sus scrofa, UniProt P16469); test: 12-LO catalysed oxidation of the nitro compounds (substrate test); assay type: biochemical, porcine; settings: pH 7.4 buffer, UV 234 nm
# T1 construct: purchased Cayman Chemical Company
# T1 sequence (P16469 1-663): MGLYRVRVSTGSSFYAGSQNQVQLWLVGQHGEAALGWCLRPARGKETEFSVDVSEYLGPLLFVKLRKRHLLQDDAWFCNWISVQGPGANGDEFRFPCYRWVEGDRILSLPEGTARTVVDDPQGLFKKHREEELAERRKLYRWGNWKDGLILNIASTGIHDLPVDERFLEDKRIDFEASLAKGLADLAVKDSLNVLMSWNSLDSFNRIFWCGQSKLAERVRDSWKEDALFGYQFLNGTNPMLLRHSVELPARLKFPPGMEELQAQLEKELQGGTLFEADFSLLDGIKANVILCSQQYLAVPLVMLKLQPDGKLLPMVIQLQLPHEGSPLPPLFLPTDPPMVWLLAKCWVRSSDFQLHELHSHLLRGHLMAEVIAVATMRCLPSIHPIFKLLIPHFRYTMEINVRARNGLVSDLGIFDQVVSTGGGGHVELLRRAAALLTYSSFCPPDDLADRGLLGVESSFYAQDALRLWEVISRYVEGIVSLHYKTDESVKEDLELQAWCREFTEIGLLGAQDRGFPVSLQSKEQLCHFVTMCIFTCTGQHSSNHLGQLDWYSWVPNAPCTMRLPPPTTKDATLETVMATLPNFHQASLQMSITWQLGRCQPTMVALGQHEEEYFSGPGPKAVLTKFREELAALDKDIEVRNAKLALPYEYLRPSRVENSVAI
# Procedure: (§2) Based on this consideration, 5-LO, 12-LO and 15-LO catalysed oxidation of the nitro compounds (4a, 4b, 6a, 6b, 8a and 8b) was investigated. Each of the nitro compounds was treated with 15-LO in pH 9.0 buffer (or 5-LO in pH 6.3 buffer and 12-LO in pH 7.4 buffer), and the formation of 15-hydroperoxy derivatives (or 5-hydroperoxy or 12-hydroperoxy derivatives) over time was monitored by UV spectroscopy at 234 nm.
# 12-LO [3] = biological target: T1, 12-LO; test: Effect on 12-LO catalysed oxidation of arachidonic acid; assay type: biochemical, porcine
# 5-LO = test: Effect on 5-LO catalysed oxidation of arachidonic acid; assay type: biochemical
# human neutrophils [4] = test: Neutrophil degranulation: release of β-glucuronidase; assay type: cell-based; settings: 20 μg/ml
# Procedure: as §1
# 15-LO = biological target: T2, 15-LO (Glycine max, UniProt P08170); test: 15-LO catalysed oxidation of the nitro compounds (substrate test); assay type: biochemical, soybean; settings: for Substrate for 15-LO: pH 9.0 buffer, UV 234 nm
# T2 construct: purchased Sigma Chemical Company
# T2 sequence (P08170 1-839): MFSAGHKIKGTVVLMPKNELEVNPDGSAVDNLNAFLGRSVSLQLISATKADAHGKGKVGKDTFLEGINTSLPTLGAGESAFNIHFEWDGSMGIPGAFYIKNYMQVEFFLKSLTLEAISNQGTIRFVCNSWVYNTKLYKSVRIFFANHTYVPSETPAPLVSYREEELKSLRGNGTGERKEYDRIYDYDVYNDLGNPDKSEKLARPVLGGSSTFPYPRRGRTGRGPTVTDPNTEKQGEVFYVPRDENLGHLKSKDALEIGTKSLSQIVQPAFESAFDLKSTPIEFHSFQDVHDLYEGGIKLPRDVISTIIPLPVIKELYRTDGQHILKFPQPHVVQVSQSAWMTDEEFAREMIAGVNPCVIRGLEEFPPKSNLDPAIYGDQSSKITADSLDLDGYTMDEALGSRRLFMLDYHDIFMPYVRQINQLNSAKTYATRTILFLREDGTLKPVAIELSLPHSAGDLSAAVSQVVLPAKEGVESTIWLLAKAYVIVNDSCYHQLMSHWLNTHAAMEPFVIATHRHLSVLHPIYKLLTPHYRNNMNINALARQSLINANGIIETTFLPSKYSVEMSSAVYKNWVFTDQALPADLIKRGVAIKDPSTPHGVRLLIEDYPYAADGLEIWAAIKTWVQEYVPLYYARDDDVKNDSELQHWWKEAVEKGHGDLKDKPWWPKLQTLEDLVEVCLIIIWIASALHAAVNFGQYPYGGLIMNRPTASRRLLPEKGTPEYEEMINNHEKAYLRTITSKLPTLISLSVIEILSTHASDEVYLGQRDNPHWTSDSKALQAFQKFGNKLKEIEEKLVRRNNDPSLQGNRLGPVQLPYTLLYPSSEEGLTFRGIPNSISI
# Procedure: as §2
# human neutrophils [5] = test: AA-enhanced chemiluminescence in human neutrophils; assay type: cell-based; settings: neutrophils pretreated with compound
# Procedure: Arachidonic acid (AA) is a natural agonist which stimulates oxygen radical production in neutrophils leading to tissue damage during inflammation. Studies were conducted to examine whether or not the Lx compounds could antagonise the effects of AA. Neutrophils were pretreated with Lx compounds and then examined for chemiluminescence response to AA addition. […] The effect of Lx compounds on AA-enhanced chemiluminescence in human neutrophils is shown graphically in FIG. 11.
# [6] = listed as (all-Z)-4-nitrotricosa-8,11,14,17-tetraenoic acid
smiles,measurement,setting,value
"CCCCC/C=C\C/C=C\C/C=C\C/C=C\CCCC(CCC(=O)O)[N+](=O)[O-] (stereo not drawn) [Lx7, (a11-Z)-4-Nitrotricosa-8,11,14,17-tetraenoic acid]",Release of vitamin B12 binding protein (specific granule marker),human neutrophils [1],as potent as 20:4n-6 and 22:6n-3
same,Substrate for 12-LO,12-LO [2]; listed as 6b,substrate
same,Substrate for 12-LO,12-LO [2]; [6],good substrate
same,Effect on 12-LO catalysed oxidation of AA,12-LO [3],Substrate
same,Effect on 5-LO catalysed oxidation of AA,5-LO,Activatory
same,Release of β-glucuronidase (azurophilic granule marker),human neutrophils [4],as potent as 20:4n-6 and 22:6n-3
same,Vmax for 15-LO catalysed oxidation of the compound,15-LO; Lineweaver Burke,Vmax = 24.48 μM/min
same,Vmax for 15-LO catalysed oxidation of the compound,"15-LO; Lineweaver Burke, listed as 6b",24.48 µM/min
same,Km,"15-LO; Lineweaver Burke, read-out: Km for 15-LO catalysed oxidation of the compound",8.4 µM
same,Substrate for 15-LO,15-LO; listed as 6b,substrate
same,Substrate for 15-LO,15-LO; [6],good substrate
same,Inhibition of AA-stimulated oxygen radical production (chemiluminescence),human neutrophils [5],particularly evident

# From patent US6924309B2 (Children, Youth and Women's Health Service Incorporated, priority 1999, dated 2005)
